# Laboratory results as given in US11110070B2 (priority 2015, dated 2021).
# “Also recorded” adds a separate entry of the source.
# Key:
# 129S6/SvEvTac mice [1] = assay: Dominant interaction test after SD; assay type: in vivo
# Experimental: Adult aggressor CD-1 male mice were single-housed in Macrolon® polycarbonate resin cages (15.25 in×7.8 in×9.5 in) (Animal Care Systems, Inc., Centennial, Colo.). Male 129S6/SvEvTac mice (9 weeks of age) were subsequently placed into the resident. CD-1 mouse's cage. Three antagonistic encounters were allowed between the CD-1 mouse and the intruder. Each of these encounters typically lasted less than 5 min. Following the encounters, mice were separated by a polished stainless steel cage divider (Animal Care Systems, Inc., Centennial, Colo., P/N C79171), which allowed for olfactory and auditory communication, but limited visual or tactile contact. The partition was removed daily for 2 weeks and 3 antagonistic encounters were allowed between the mice each day. This procedure consistently yielded a submissive phenotype in the experimental intruder mice. Control (Ctrl) mice were group housed 4 to 5 per cage in Macrolon® polycarbonate resin cages without dividers.
# (§1) Dominant interaction was performed as previously described (A12). Briefly, mice were placed into a large open field containing 2 upside-down wire mesh pencil cups. One pencil cup served as a novel object or empty container. The other pencil cup contained the CD-1 aggressor mouse. Mice were placed in the middle of the open field arena and allowed to explore for 10 min. Sessions were videotaped and the first 5 min were later analyzed using behavioral tracking software (TopScan, CleverSys, Reston, Va.).
# 129S6/SvEvTac mice [2] = assay: Social interaction with a novel mouse after SD; assay type: in vivo; settings: ketamine 30 mg kg^−1 before SD
# Experimental: as §1, with “Mice” for “Dominant interaction was performed as previously described (A12). Briefly, mice”, “a novel 129S6/SvEv male” for “the CD-1 aggressor”
# 129S6/SvEvTac mice [3] = assay: Elevated plus maze (EPM) in SD experiments; assay type: in vivo; settings: ketamine 30 mg kg^−1 before SD; Ctrl and SD groups
# Experimental: Testing was performed as previously described (A14). Briefly, the maze is a plus-cross-shaped apparatus consisting of four arms, two open and two enclosed by walls, linked by a central platform at a height of 50 cm from the floor. Mice were individually placed in the center of the maze facing an open arm and were allowed to explore the maze for 5 min. The time spent in and the number of entries into the open arms was used as an anxiety index. For the 12956/SvEv experiments, videos were scored using behavioral tracking software (TopScan, CleverSys, Reston, Va.). For the C57BL/6Ntac experiments, all parameters were measured using a videotracker (EPM3C. Bioseb, Vitrolles, France).
# 129S6/SvEvTac mice [4] = assay: Learned helplessness (LH) shock escape; assay type: in vivo; settings: ketamine 30 mg kg^−1 1 week before LH training, vs saline
# Experimental: Experiment 4 (Pre-ketamine in learned helplessness (LH)); At 8 weeks of age, a single injection of saline or ketamine (30 mg kg^−1) was administered. One week following this injection, LH training (inescapable shock) was administered. Two weeks later, mice were administered LH testing (shock escape).
# The LH paradigm was used to induce depressive-like behavior (A4). In this paradigm, mice are exposed to unpredictable and uncontrollable stress (shocks) and then develop coping deficits to deal with the inescapable shocks. We modified a previously published paradigm (A5). Briefly, the procedure was conducted in a two-chamber shuttle box (model ENV 010MD; Med Associates, St. Albans, Vt.) located within a sound-attenuated cubicle. The grid floor was made of stainless steel and connected to a shock generator. The scrambled shock generator (model ENV 414S, Med Associates) created varying electrical potential differences between bars preventing an animal from avoiding shock.
# Inescapable shock (training): At approximately 9 weeks of age, mice were trained in the LH paradigm. For each shuttle box, 2 animals were administered the protocol at the same time: the central door was closed, with one animal in the chamber on each side. After a 3 min habituation period, the shock deliveries began. […]
# C57BL/6NTac mice = assay: FST in chronic corticosterone (CORT) model; assay type: in vivo
# 129S6/SvEv mice = assay: FST after prophylactic ketamine or ketamine metabolites (FIG. 15); assay type: in vivo; settings: prophylactic K-injected vs Sal-injected mice
# 129S6/SvEvTac mice [5] = assay: Open field (OF) after reinstatement; assay type: in vivo
# Experimental: OF protocol was administered as previously described (Richardson-Jones et al., 2010).
# military patients = settings: McGhee et al., cited from earlier work
# [6] = in rodents; cited from earlier work
# [7] = SD mice, ketamine 30 mg kg^−1 before SD, vs SD-Sal
structure (smiles),measurement,setting,value
"CNC1(c2ccccc2Cl)CCCCC1=O (racemic) [ketamine, (RS)-2-(2-chlorophenyl)-2-(methylamino)cyclohexanone]",time investigating the empty enclosure quadrant,"129S6/SvEvTac mice [1]; Ctrl mice, ketamine 30 mg kg^−1 vs saline",equivalent amount of time investigating the empty enclosure quadrant
same,interaction with the CD-1 aggressor mouse,129S6/SvEvTac mice [1]; [7],significantly increased willingness to interact with the CD-1; also recorded: considerably more time investigating a CD-1 mouse
same,time investigating the empty enclosure quadrant,129S6/SvEvTac mice [1]; [7],significantly less time investigating the empty enclosure quadrant
same,social interaction with a novel mouse,129S6/SvEvTac mice [2],did not find an effect
same,time in the closed arms of EPM,129S6/SvEvTac mice [3],no significant effect of ketamine in either group
same,latency to escape the shock,129S6/SvEvTac mice [4]; testing 2 weeks later,decreased latency to escape the shock; also recorded: significantly less
same,session length (all 30 trials),129S6/SvEvTac mice [4],significantly shorter; also recorded: significantly less
same,most effective dose in protecting against depressive-like behavior following chronic CORT,"C57BL/6NTac mice; C57BL/6NTac mice, doses tested 10, 30, 90 mg kg^−1",90 mg/kg
same,persistence of ketamine-induced resilience post-injection,C57BL/6NTac mice; CORT model,≥ 4 weeks
same,immobility time on day 2 in the FST,"C57BL/6NTac mice; ketamine 90 mg kg^−1 or fluoxetine 18 mg kg^−1/day, before 3 weeks of CORT",decreased immobility time; also recorded: significantly reduced immobility
same,immobility in day 2 of the FST,129S6/SvEv mice,significantly less immobility
same,number of rearing bouts in the OF,"129S6/SvEvTac mice [5]; ketamine 1 week prior to 1-shock reinstatement, vs saline",higher number of rearing bouts; also recorded: increased number of rearing bouts
same,number of rearing bouts in the OF,129S6/SvEvTac mice [5]; ketamine 1 week prior to 3-shock reinstatement,comparable number of rearing bouts
same,prevalence of PTSD,"military patients; ketamine during an operation for burns vs no ketamine, 2008",decreased
same,incidence rate of PTSD,"military patients; with and without intraoperative ketamine, 2014",comparable incidence rate of PTSD
same,half-life,[6],only a few hours
